Values of other authors in patent publication US20060034895A1, “Supplement food for low blood glucose recovery” (priority 2003, published 2006).

solubility in alcohol (alcohol): cannot melt into an alcohol easily
solubility in ether (ether): insoluble to ether
solubility in water (water): easy to melt into water
Compound: O=C[C@H](O)[C@@H](O)[C@H](O)[C@H](O)CO [D-glucose]
